In ChEMBL document CHEMBL3638691, “Quinoline derivatives and MELK inhibitors containing the same” (2015):
pIC50: −log10 of the molar value. Several values for one entry are separate records, joined by “and”; a condition that tells them apart may be missing. Identical values can stand only once.

biological target: Maternal embryonic leucine zipper kinase (Homo sapiens, UniProt Q14680); experiment: Kinase Assay: MELK activity was determined in the presence or absence of compounds using fluorescein isothiocyanate-labeled (FITC-labeled) histone H3 peptide as a substrate. The extent of FITC-labeled histone H3 peptide phosphorylation was measured by immobilized metal ion affinity-based fluorescence polarization (IMAP) technology (Sportsman J R, et al., Assay Drug Dev. Technol. 2: 205-14, 2004) using IMAP FP Progressive Binding System (Molecular Devices Corporation). Test compounds were dissolved in DMSO at 12.5 mM and then serially diluted as the DMSO concentration in the assays to be 1%. The serially diluted compounds, 0.8 ng/micro-L PBK (Carna Biosciences) and 100 nM FITC-labeled histone H3 peptide were reacted in a reaction buffer (20 mM HEPES, 0.01% Tween-20, 0.3 mM MgCl2, 2 mM dithiothreitol, 50 micro-M ATP, pH 7.4) at room temperature for 1 hour. The reaction was stopped by the addition of three fold assay volume of progressive binding solution. Following 0.5 hour incubation at room temperature.
Sequence (Q14680 whole entry): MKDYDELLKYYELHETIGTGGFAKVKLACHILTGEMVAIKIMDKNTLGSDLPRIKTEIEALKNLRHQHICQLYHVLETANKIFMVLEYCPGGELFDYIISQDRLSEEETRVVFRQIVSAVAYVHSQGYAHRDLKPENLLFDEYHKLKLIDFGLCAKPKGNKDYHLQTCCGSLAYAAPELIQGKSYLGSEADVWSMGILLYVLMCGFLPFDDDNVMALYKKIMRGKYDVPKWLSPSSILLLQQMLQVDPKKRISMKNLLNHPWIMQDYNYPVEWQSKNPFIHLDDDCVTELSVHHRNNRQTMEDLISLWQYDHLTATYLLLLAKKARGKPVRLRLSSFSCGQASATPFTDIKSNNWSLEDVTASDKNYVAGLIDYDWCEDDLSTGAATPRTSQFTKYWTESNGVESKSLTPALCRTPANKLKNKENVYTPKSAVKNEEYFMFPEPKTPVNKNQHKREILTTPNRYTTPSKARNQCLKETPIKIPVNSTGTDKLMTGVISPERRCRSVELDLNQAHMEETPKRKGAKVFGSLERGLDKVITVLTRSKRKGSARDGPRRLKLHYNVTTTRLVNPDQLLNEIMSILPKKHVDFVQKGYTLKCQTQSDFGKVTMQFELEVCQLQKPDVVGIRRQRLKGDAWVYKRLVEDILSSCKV

In order of falling pIC50:
1. N#Cc1ncc(-c2ccc3ncc(C(=O)C4CC4)c(Nc4ccc(CN)cc4)c3c2)cn1  8.89
2. O=C(c1cnc2ccc(-c3cc(Cl)c(O)c(Cl)c3)cc2c1N[C@H]1CC[C@H](CN2CCCC2)CC1)C1CC1  8.85
3. COc1cc(-c2ccc3ncc(C#N)c(N[C@H]4CC[C@H](N(C)C)CC4)c3c2)cc(Cl)c1O  8.74
4. CS(=O)(=O)c1cnc2ccc(-c3cc(Cl)c(O)c(Cl)c3)cc2c1Nc1cccc(CCN2CCCC2)c1  8.70
5. CC(=O)c1cnc2ccc(-c3cnc(C#N)nc3)cc2c1Nc1ccc(CN(C)C)cc1  8.66
6. O=C(c1cnc2ccc(-c3cc(Cl)c(O)c(Cl)c3)cc2c1N1CCC(CCN2CCCC2)CC1)C1CC1  8.64
7. CN(C)C1CCN(c2ccc(Nc3c(S(C)(=O)=O)cnc4ccc(-c5cc(Cl)c(O)c(Cl)c5)cc34)cn2)C1 (stereo not drawn)  8.62
8. CC(=O)c1cnc2ccc(-c3cc(Cl)c(O)c(Cl)c3)cc2c1N[C@H]1CCC[C@@H](CN2CCN(C)CC2)C1  8.57
9. CS(=O)(=O)c1cnc2ccc(-c3cc(Cl)c(O)c(Cl)c3)cc2c1N[C@H]1CC[C@H](CN2CCCC2)CC1  8.57
10. CCN(CC)CCO[C@H]1CC[C@H](Nc2c(C(C)=O)cnc3ccc(-c4cc(Cl)c(O)c(Cl)c4)cc23)CC1  8.54
11. CN(C)C1CCN(C[C@H]2CC[C@H](Nc3c(C(=O)C4CC4)cnc4ccc(-c5cc(Cl)c(O)c(Cl)c5)cc34)CC2)C1 (stereo partly drawn)  8.52
12. CN(C)C[C@H]1CC[C@H](Nc2c(C(=O)C3CCCC3)cnc3ccc(-c4cc(Cl)c(O)c(Cl)c4)cc23)CC1  8.52
13. CC(=O)c1cnc2ccc(-c3cc(Cl)c(O)c(Cl)c3)cc2c1N[C@H]1CC[C@H](CN(C)C)CC1  8.51
14. CC(=O)c1cnc2ccc(-c3cc(Cl)c(O)c(Cl)c3)cc2c1N[C@H]1CC[C@H](NC(=O)[C@@H](N)C(C)(C)C)CC1  8.38
15. CC(=O)c1cnc2ccc(-c3cc(Cl)c(O)c(Cl)c3)cc2c1N[C@H]1CC[C@H](CN2CCN(C)CC2)CC1  8.26
16. CN(C)Cc1ccc(Nc2c([S+](C)[O-])cnc3ccc(-c4cc(Cl)c(O)c(Cl)c4)cc23)cc1 (stereo not drawn)  8.09
17. O=C(c1cnc2ccc(-c3cc(Cl)c(O)c(Cl)c3)cc2c1Nc1cccc(CCN2CCCC2)c1)C1CCCC1  8.02
18. CC(N)C(=O)N[C@H]1CC[C@H](Nc2c(C(=O)C(C)(C)C)cnc3ccc(-c4cc(Cl)c(O)c(Cl)c4)cc23)CC1 (stereo partly drawn)  7.82
19. O=C(c1cnc2ccc(-c3cc(Cl)c(O)c(Cl)c3)cc2c1Nc1ccc(CN2CCOCC2)cc1)C1CC1  7.70
20. CN(C)C[C@H]1CC[C@H](Nc2c(C(=O)C(C)(C)C)cnc3ccc(-c4cc(Cl)c(O)c(Cl)c4)cc23)CC1  7.66
21. COc1cc(-c2ccc3ncc(C(=O)C4CC4)c(Nc4ccc(C5CCCN5C)cn4)c3c2)cc(Cl)c1O (stereo not drawn)  7.44
22. CC(=O)c1cnc2ccc(-c3cc(Cl)c(O)c(Cl)c3)cc2c1Nc1ccc(S(=O)(=O)N2CCN(C)CC2)cc1  7.44
23. CC(=O)c1cnc2cc(C)c(-c3cc(Cl)c(O)c(Cl)c3)cc2c1N[C@H]1CC[C@H](CN2CCC(N)C2)CC1 (stereo partly drawn)  7.26
24. Cc1cc(O)c(Cl)cc1-c1ccc2ncc(C(=O)C3CC3)c(N3CCC(CN(C)C)CC3)c2c1  7.22
25. CN(C)CC1CCN(c2c(C(=O)C3CC3)cnc3ccc(-c4ccc(OC(F)F)cc4)cc23)CC1  6.20
26. CN(C)CC1CCN(c2c(C(=O)C3CC3)cnc3ccc(-c4ccc5c(c4)CC(=O)N5)cc23)CC1  6.18

With CN1CCN(C[C@H]2CC[C@H](Nc3c(C(=O)C4CC4)cnc4ccc(-c5cc(Cl)c(O)c(Cl)c5)cc34)CC2)CC1 the pIC50 was 8.38 and 8.55.
For CN(C)C1CCN(Cc2ccc(Nc3c(C(=O)C4CC4)cnc4ccc(-c5cc(Cl)c(O)c(Cl)c5)cc34)cc2)C1 (stereo not drawn), the pIC50 was 8.14 and 8.25.
